Here are results for 21 compounds from patent US20090075915A1, “6,11-BICYCLOLIDES: BRIDGED BIARYL MACROLIDE DERIVATIVES” (priority 2007, published 2009).

In brackets after ≈: the same amount, converted by molar mass. A value given as a limit tells only on which side of the number the result lay.

One test deals with H influenzae 49247. Description: MIC, H influenzae 49247. Particulars: for MIC: Haemophilus influenzae, 49247, Table 5; for H. influenzae 49247 (microbiological data): Table 6, related compounds of US 6878691. It is filed as cell-based, Haemophilus influenzae. As for the experimental part: (§1) Susceptibility tests can be used to quantitatively measure the in vitro activity of an antimicrobial agent against a given bacterial isolate. Compounds are tested for in vitro antibacterial activity by a micro-dilution method. Minimal Inhibitory Concentration (MIC) is determined in 96 well microtiter plates utilizing the appropriate broth medium for the observed bacterial isolates. Antimicrobial agents are serially diluted (2-fold) in DMSO to produce a concentration range from about 64 μg/ml to about 0.03 μg/ml. The diluted compounds (2 μl/well) are then transferred into sterile, uninoculated medium (0.2 mL) by use of a 96 fixed tip-pipetting station. The inoculum for each bacterial strain is standardized to approximately 5×10^5 CFU/mL by optical comparison to a 0.5 McFarland turbidity standard. The plates are inoculated with 10 μl/well of adjusted bacterial inoculum. The 96 well plates are covered and incubated at 35±2° C. for 24 hours in ambient air environment. Following incubation, plate wells are visually examined by Optical Density measurement for the presence of growth (turbidity). The lowest concentration of an antimicrobial agent at which no visible growth occurs is defined as the MIC.
(§2) All in vitro testing follows the guidelines described in the Approved Standards M7-A7 protocol, published by the Clinical Laboratory Standards Institute (CLSI).

The test system of a further test is H influenzae 33929. Description: MIC, H influenzae 33929. It is filed as cell-based, Haemophilus influenzae. Particulars: for MIC: Haemophilus influenzae, 33929, Table 5; for H. influenzae 33929 (microbiological data): Table 6, related compounds of US 6878691. As for the experimental part:
as §1, §2

In a further test the test system is MRSA 7662. Description: MIC, MRSA 7662. In kind it is cell-based. Particulars: Staphylococcus aureus, Table 5, read-out: MIC MRSA 7662. As to the method:
as §1, §2

The next test concerns MRSA 33591. Briefly: MIC, MRSA 33591. In kind it is cell-based, Staphylococcus aureus. As to conditions: for MIC: Staphylococcus aureus, MRSA, Table 5; for MRSA 33591 (microbiological data): Table 6, related compounds of US 6878691. As for the experimental part: as §1, §2

Consider `CC[C@H]1OC(=O)[C@H](C)C(=O)[C@H](C)[C@@H](O[C@@H]2O[C@H](C)C[C@H](N(C)C)[C@H]2O)[C@@]2(C)C[C@@H](C)C(=O)[C@H](C)[C@@H](OC/C(=N\OCc3ccc(-c4nc(N)ns4)cn3)CO2)[C@]1(C)O` [Compound 2], for which the MIC worked out at 1 µg/mL (≈ 1.2 µM) with H influenzae 49247 and 2 µg/mL (≈ 2.4 µM) against H influenzae 33929.
Take `CCC(=O)/N=C1\[C@H](C)C[C@@]2(C)OC/C(=N/OCc3csc(-c4cccc(N)n4)n3)CO[C@H]([C@H]1C)[C@](C)(O)[C@@H](CC)OC(=O)[C@@](C)(F)C(=O)[C@H](C)[C@H]2O[C@@H]1O[C@H](C)C[C@H](N(C)C)[C@H]1O` [Compound 3]: the MIC against H influenzae 49247 turned out to be 1 µg/mL (≈ 1.1 µM); in the test on MRSA 7662, 1 µg/mL (≈ 1.1 µM); in the test with MRSA 33591, 2 µg/mL (≈ 2.21 µM); against H influenzae 33929, 4 µg/mL (≈ 4.42 µM).
`CCC(=O)/N=C1\[C@H](C)C[C@@]2(C)OC/C(=N/OCc3coc(-c4cccc(N)n4)n3)CO[C@H]([C@H]1C)[C@](C)(O)[C@@H](CC)OC(=O)[C@@](C)(F)C(=O)[C@H](C)[C@H]2O[C@@H]1O[C@H](C)C[C@H](N(C)C)[C@H]1O` [Compound 11]: the figures for the MIC in the test with MRSA 7662 and in the test with MRSA 33591 were 2 µg/mL (≈ 2.25 µM) and 4 µg/mL (≈ 4.5 µM), respectively.
In the case of `CCC1OC(=O)C(C)C(=O)C(C)C(OC2OC(C)CC(N(C)C)C2O)C2(C)CC(C)C(=NC(C)=O)C(C)C(OCC(=NOCc3ccc(-c4cccnc4)s3)CO2)C1(C)O` (centres unmarked) [Example 66 in US 6878691], in the test with H influenzae 49247, the “H. influenzae 49247 (microbiological data)” value is reported as 16. Moreover, in the test on MRSA 33591, the “MRSA 33591 (microbiological data)” value is greater than 64. Further, in the test on H influenzae 33929, the “H. influenzae 33929 (microbiological data)” value came out at 16.
On to `CCC1OC(=O)C(C)C(=O)C(C)C(OC2OC(C)CC(N(C)C)C2O)C2(C)CC(C)C(=NC(C)=O)C(C)C(OCC(=NOCc3cc(-c4cccnc4)no3)CO2)C1(C)O` (centres unmarked) [Example 69 in US 6878691], for which the “H. influenzae 49247 (microbiological data)” value in the test on H influenzae 49247 is 16. Moreover, the “MRSA 33591 (microbiological data)” value with MRSA 33591 is greater than 64. The “H. influenzae 33929 (microbiological data)” value with H influenzae 33929 came to 16.
For `CCC1OC(=O)C(C)C(=O)C(C)C(OC2OC(C)CC(N(C)C)C2O)C2(C)CC(C)C(=NC(C)=O)C(C)C(OCC(=NOCc3ccc(-c4csnn4)cc3)CO2)C1(C)O` (centres unmarked) [Example 72 in US 6878691], the “H. influenzae 49247 (microbiological data)” value in the test with H influenzae 49247 is 8. In addition, the “MRSA 33591 (microbiological data)” value in the test on MRSA 33591 was greater than 64. Moreover, the “H. influenzae 33929 (microbiological data)” value in the test on H influenzae 33929 came to 8.
With `CCC1OC(=O)C(C)C(=O)C(C)C(OC2OC(C)CC(N(C)C)C2O)C2(C)CC(C)C(=NC(C)=O)C(C)C(OCC(=NOCc3ccc(-n4cncn4)cc3)CO2)C1(C)O` (centres unmarked) [Example 91 in US 6878691], the “H. influenzae 49247 (microbiological data)” value in the test with H influenzae 49247 worked out at 8. Moreover, the “MRSA 33591 (microbiological data)” value in the test with MRSA 33591 was greater than 64. In addition, the “H. influenzae 33929 (microbiological data)” value in the test with H influenzae 33929 was found to be 16.
The corresponding values for `CCC1OC(=O)C(C)C(=O)C(C)C(OC2OC(C)CC(N(C)C)C2O)C2(C)CC(C)C(=NC(C)=O)C(C)C(OCC(=NOCc3noc(-c4ccccc4)n3)CO2)C1(C)O` (centres unmarked) [Example 106 in US 6878691] are 8, greater than 64 and 8.
The corresponding values for `CCC1OC(=O)C(C)C(=O)C(C)C(OC2OC(C)CC(N(C)C)C2O)C2(C)CC(C)C(=NC(C)=O)C(C)C(OCC(=NOCc3ccc(-c4ccccn4)s3)CO2)C1(C)O` (centres unmarked) [Example 115 in US 6878691] are 16, greater than 64 and 16.
The like results for `CCC1OC(=O)C(C)(F)C(=O)C(C)C(OC2OC(C)CC(N(C)C)C2O)C2(C)CC(C)C(=NC(C)=O)C(C)C(OCC(=NOCc3ccc(-c4ncccn4)s3)CO2)C1(C)O` (centres unmarked) [Example 140 in US 6878691] were, in that order, 8, 16 and 8.
As for `CCC1OC(=O)C(C)(F)C(=O)C(C)C(OC2OC(C)CC(N(C)C)C2O)C2(C)CC(C)C(=NC(C)=O)C(C)C(OCC(=NOCc3ccc(-c4cnccn4)s3)CO2)C1(C)O` (centres unmarked) [Example 141 in US 6878691], the “H. influenzae 49247 (microbiological data)” value with H influenzae 49247 came to 8. Besides, the “MRSA 33591 (microbiological data)” value in the test with MRSA 33591 came out at 32. Further, the “H. influenzae 33929 (microbiological data)” value in the test on H influenzae 33929 came out at 8.
As to `CCC1OC(=O)C(C)(F)C(=O)C(C)C(OC2OC(C)CC(N(C)C)C2O)C2(C)CC(C)C(=NC(C)=O)C(C)C(OCC(=NOCc3ccc(-c4cccc(N)n4)s3)CO2)C1(C)O` (centres unmarked) [Example 173 in US 6878691], the “H. influenzae 49247 (microbiological data)” value in the test on H influenzae 49247 was 4. Moreover, the “MRSA 33591 (microbiological data)” value in the test with MRSA 33591 is 4. Further, the “H. influenzae 33929 (microbiological data)” value in the test on H influenzae 33929 was 4.
`CCC1OC(=O)C(C)C(=O)C(C)C(OC2OC(C)CC(N(C)C)C2O)C2(C)CC(C)C(=NC(C)=O)C(C)C(OCC(=NOCc3ccc(-c4ncccn4)cc3)CO2)C1(C)O` (centres unmarked) [Example 193 in US 6878691]: the “H. influenzae 49247 (microbiological data)” value in the test on H influenzae 49247 worked out at 8. The “MRSA 33591 (microbiological data)” value in the test on MRSA 33591 turned out to be 64. Also, the “H. influenzae 33929 (microbiological data)” value in the test on H influenzae 33929 stood at 8.
For the compound `CCNC(=O)c1cccc(-c2cc(CON=C3COC4C(C)C(=NC(C)=O)C(C)CC(C)(OC3)C(OC3OC(C)CC(N(C)C)C3O)C(C)C(=O)C(C)C(=O)OC(CC)C4(C)O)on2)n1` (centres unmarked) [Example 195 in US 6878691], the “H. influenzae 49247 (microbiological data)” value in the test with H influenzae 49247 was 32. The “MRSA 33591 (microbiological data)” value in the test with MRSA 33591 was greater than 64. For the same compound, the “H. influenzae 33929 (microbiological data)” value in the test on H influenzae 33929 amounted to 32.
For `CCC1OC(=O)C(C)C(=O)C(C)C(OC2OC(C)CC(N(C)C)C2O)C2(C)CC(C)C(=NC(C)=O)C(C)C(OCC(=NOCc3ccc(-c4cccs4)nc3)CO2)C1(C)O` (centres unmarked) [Example 205 in US 6878691], the “H. influenzae 49247 (microbiological data)” value in the test with H influenzae 49247 was 8. For the same compound, in the test with MRSA 33591, the “MRSA 33591 (microbiological data)” value was greater than 64. Moreover, the “H. influenzae 33929 (microbiological data)” value in the test on H influenzae 33929 is reported as 4.
With `CCC1OC(=O)C(C)C(=O)C(C)C(OC2OC(C)CC(N(C)C)C2O)C2(C)CC(C)C(=NC(C)=O)C(C)C(OCC(=NOCc3ccc(-c4nccs4)nc3)CO2)C1(C)O` (centres unmarked) [Example 212 in US 6878691], in the test on H influenzae 49247, the “H. influenzae 49247 (microbiological data)” value was 8. The “MRSA 33591 (microbiological data)” value with MRSA 33591 was 64. In the test with H influenzae 33929, the “H. influenzae 33929 (microbiological data)” value is recorded as 4.
Take `CCC1OC(=O)C(C)(F)C(=O)C(C)C(OC2OC(C)CC(N(C)C)C2O)C2(C)CC(C)C(=NC(C)=O)C(C)C(OCC(=NOCc3ccc(-n4cccn4)nc3)CO2)C1(C)O` (centres unmarked) [Example 214 in US 6878691]: the “H. influenzae 49247 (microbiological data)” value with H influenzae 49247 is listed as 8. The “MRSA 33591 (microbiological data)” value in the test on MRSA 33591 is recorded as 64. In the test with H influenzae 33929, the “H. influenzae 33929 (microbiological data)” value stood at 4.
The corresponding values for `CCC1OC(=O)C(C)(F)C(=O)C(C)C(OC2OC(C)CC(N(C)C)C2O)C2(C)CC(C)C(=NC(C)=O)C(C)C(OCC(=NOCc3ccc(-c4csnn4)cc3)CO2)C1(C)O` (centres unmarked) [Example 219 in US 6878691] are 4, 32 and 4.
On to `CCC1OC(=O)C(C)C(=O)C(C)C(OC2OC(C)CC(N(C)C)C2O)C2(C)CC(C)C(=NC(C)=O)C(C)C(OCC(=NOCc3ccc(-c4cccc(N)n4)nc3)CO2)C1(C)O` (centres unmarked) [Example 227 in US 6878691], for which, in the test on H influenzae 49247, the “H. influenzae 49247 (microbiological data)” value amounted to 4. Moreover, the “MRSA 33591 (microbiological data)” value with MRSA 33591 is reported as 32. The “H. influenzae 33929 (microbiological data)” value in the test on H influenzae 33929 was 4.
As for `CCC1OC(=O)C(C)C(=O)C(C)C(OC2OC(C)CC(N(C)C)C2O)C2(C)CC(C)C(=NC(C)=O)C(C)C(OCC(=NOCc3ccc(-c4nnc(N)s4)nc3)CO2)C1(C)O` (centres unmarked) [Example 234 in US 6878691], the “H. influenzae 49247 (microbiological data)” value with H influenzae 49247 is 4. In addition, the “MRSA 33591 (microbiological data)” value in the test on MRSA 33591 is reported as greater than 64. Moreover, in the test on H influenzae 33929, the “H. influenzae 33929 (microbiological data)” value was determined as 4.
In the case of `CCC1OC(=O)C(C)C(=O)C(C)C(OC2OC(C)CC(N(C)C)C2O)C2(C)CC(C)C(=NC(C)=O)C(C)C(OCC(=NOCc3cnc(-n4cccn4)c(F)c3)CO2)C1(C)O` (centres unmarked) [Example 259 in US 6878691], the “H. influenzae 49247 (microbiological data)” value in the test with H influenzae 49247 came out at 4. Further, the “MRSA 33591 (microbiological data)” value with MRSA 33591 is greater than 64. In the test with H influenzae 33929, the “H. influenzae 33929 (microbiological data)” value stood at 8.
